Measurements: patent publication US7491794B2, “Macrocyclic compounds as inhibitors of viral replication” (Intermune, Inc., priority 2003, dated 2009)
Like-named read-outs stand apart in the source and are kept apart here.

Key:
NS3-NS4A protease = molecular target: T1, NS3-NS4A protease (Hepatitis C virus genotype 1a, UniProt P27958); test: NS3-NS4A protease assay (NS3 inhibition assay, RETS1 substrate), Section B; type: biochemical; conditions: read-out: NS3-NS4A IC50
T1 construct: Recombinant E. coli or Baculovirus full-length NS3 was diluted to 3.33 μM with assay buffer; made in house; host or cells: E. coli or baculovirus (BV) system
Method in brief: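 Full-length NS3 (E. coli or baculovirus) precomplexed with excess NS4A-2 peptide, run at 2 nM (E. coli) or 3 nM (BV) NS3; compounds pre-incubated 10 min at room temperature before RETS1 substrate. Fluorescence (ex 335/em 495 nm) read kinetically 30 min; IC50 from four-parameter fit, converted to Ki via Ki=IC50/(1+[S]/Km).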

[1] = test system: HCV sub-genomic replicon, GS4.3; test: Quantitation by ELISA of NPTII in the HCV sub-genomic replicon, GS4.3, Section B; type: cell-based; conditions: Hepatitis C virus, read-out: Replicon EC50
Method in brief: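 GS4.3 cells (HuH-7 carrying HCV 1377/NS3-3′ replicon) were treated 72 h at 37 °C with inhibitors in 3-fold dilutions, 1% DMSO, no G418. Lysate NPTII was measured by ELISA (TMB, 450 nm). Signal as % of DMSO control; EC50 from 4-parameter fit.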

T1 sequence (P27958 1027-1657): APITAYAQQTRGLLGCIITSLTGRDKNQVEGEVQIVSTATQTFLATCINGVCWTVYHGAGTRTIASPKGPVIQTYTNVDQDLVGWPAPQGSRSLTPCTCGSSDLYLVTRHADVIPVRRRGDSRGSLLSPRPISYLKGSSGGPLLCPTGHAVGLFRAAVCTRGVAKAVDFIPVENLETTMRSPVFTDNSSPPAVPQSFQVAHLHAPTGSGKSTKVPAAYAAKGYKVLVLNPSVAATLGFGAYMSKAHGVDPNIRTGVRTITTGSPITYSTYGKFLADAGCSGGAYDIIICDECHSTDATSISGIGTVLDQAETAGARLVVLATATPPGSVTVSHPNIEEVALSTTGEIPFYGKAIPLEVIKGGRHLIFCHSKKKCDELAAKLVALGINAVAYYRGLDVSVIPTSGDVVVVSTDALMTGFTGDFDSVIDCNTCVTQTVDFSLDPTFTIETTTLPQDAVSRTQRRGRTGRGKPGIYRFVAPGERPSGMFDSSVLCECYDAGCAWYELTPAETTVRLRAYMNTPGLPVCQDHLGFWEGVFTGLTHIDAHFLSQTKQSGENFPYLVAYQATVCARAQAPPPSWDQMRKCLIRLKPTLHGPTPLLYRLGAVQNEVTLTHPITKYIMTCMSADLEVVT

Row | Structure (SMILES) | IC50 (NS3-NS4A protease) | EC50 ([1]; GS4.3 cells, 72 h incubation) | EC50 ([1]; 72 h)
1 | O=C(N[C@H]1CCCCC/C=C\[C@@H]2C[C@@]2(C(=O)NS(=O)(=O)C2CC2)NC(=O)[C@@H]2C[C@@H](OC(=O)N3CCc4ccccc4C3)CN2C1=O)OC1CCOCC1 [AR00320082, (1S,4R,6S,14S,18R)-3,4-Dihydro-1H-isoquinoline-2-carboxylic acid 4-cyclopropanesulfonylaminocarbonyl-2,15-dioxo-14-(tetrahydro-pyran-4-yloxycarbonylamino)-3,16-diaza-tricyclo[14.3.0.0^4,6]nonadec-7-en-18-yl ester] | < 0.1 µM | < 0.1 µM | 
2 | CC(C)(C)OC(=O)N[C@H]1CCCCC/C=C\[C@@H]2C[C@@]2(C(=O)NS(=O)(=O)C2CC2)NC(=O)[C@@H]2C[C@@H](OC(=O)N3Cc4ccc(Cl)cc4C3)CN2C1=O [AR00320119, (1S,4R,6S,14S,18R)-5-Chloro-1,3-dihydro-isoindole-2-carboxylic acid 14-tert-butoxycarbonylamino-4-cyclopropanesulfonylaminocarbonyl-2,15-dioxo-3,16-diaza-tricyclo[14.3.0.0^4,6]nonadec-7-en-18-yl ester] | < 0.1 µM | < 0.1 µM | 
3 | CN(C)c1cccc2c1CCN(C(=O)O[C@@H]1C[C@H]3C(=O)N[C@]4(C(=O)NS(=O)(=O)C5CC5)C[C@H]4/C=C\CCCCC[C@H](NC(=O)OC(C)(C)C)C(=O)N3C1)C2 [AR00320120, (1S,4R,6S,14S,18R)-5-Dimethylamino-3,4-dihydro-1H-isoquinoline-2-carboxylic acid 14-tert-butoxycarbonylamino-4-cyclopropanesulfonylaminocarbonyl-2,15-dioxo-3,16-diaza-tricyclo[14.3.0.0^4,6]nonadec-7-en-18-yl ester] | < 0.1 µM | < 0.1 µM | 
4 | CC(C)(C)OC(=O)N[C@H]1CCCCC/C=C\[C@@H]2C[C@@]2(C(=O)NS(=O)(=O)C2CC2)NC(=O)[C@@H]2C[C@@H](OC(=O)N3Cc4cc(Cl)c(Cl)cc4C3)CN2C1=O [AR00320121, (1S,4R,6S,14S,18R)-5,6-Dichloro-1,3-dihydro-isoindole-2-carboxylic acid 14-tert-butoxycarbonylamino-4-cyclopropanesulfonylaminocarbonyl-2,15-dioxo-3,16-diaza-tricyclo[14.3.0.0^4,6]nonadec-7-en-18-yl ester] | < 0.1 µM | < 0.1 µM | 
5 | C[C@H]1CN(C(=O)O[C@@H]2C[C@H]3C(=O)N[C@]4(C(=O)O)C[C@H]4C=CCCCCC[C@H](NC(=O)OC(C)(C)C)C(=O)N3C2)Cc2ccccc21 [AR00320122, (1S,4R,6S,14S,18R)-14-tert-Butoxycarbonylamino-18-(4R-methyl-3,4-dihydro-1H-isoquinoline-2-carbonyloxy)-2,15-dioxo-3,16-diaza-tricyclo[14.3.0.0^4,6]nonadec-7-ene-4-carboxylic acid] | < 1 µM | < 10 µM | 
6 | C[C@@H]1CN(C(=O)O[C@@H]2C[C@H]3C(=O)N[C@]4(C(=O)O)C[C@H]4/C=C\CCCCC[C@H](NC(=O)OC(C)(C)C)C(=O)N3C2)Cc2ccccc21 [AR00320123, (1S,4R,6S,14S,18R)-14-tert-Butoxycarbonylamino-18-(4S-methyl-3,4-dihydro-1H-isoquinoline-2-carbonyloxy)-2,15-dioxo-3,16-diaza-tricyclo[14.3.0.0^4,6]nonadec-7-ene-4-carboxylic acid] | < 1 µM | < 10 µM | 
7 | CC(C)(C)NC(=O)N[C@H]1CCCCC/C=C\[C@@H]2C[C@@]2(C(=O)NS(=O)(=O)C2CC2)NC(=O)[C@@H]2C[C@@H](OC(=O)N3Cc4ccccc4C3)CN2C1=O [AR00320220, (1S,4R,6S,14S,18R)-1,3-Dihydro-isoindole-2-carboxylic acid 14-(3-tert-butyl-ureido)-4-cyclopropanesulfonylaminocarbonyl-2,15-dioxo-3,16-diaza-tricyclo[14.3.0.0^4,6]nonadec-7-en-18-yl ester] | < 0.1 µM | < 0.1 µM | 
8 | O=C(NC1CCOC1)N[C@H]1CCCCC/C=C\[C@@H]2C[C@@]2(C(=O)NS(=O)(=O)C2CC2)NC(=O)[C@@H]2C[C@@H](OC(=O)N3CCc4ccccc4C3)CN2C1=O (stereo partly drawn) [AR00320222, (1S,4R,6S,14S,18R)-3,4-Dihydro-1H-isoquinoline-2-carboxylic acid 4-cyclopropanesulfonylaminocarbonyl-2,15-dioxo-14-[3-(tetrahydro-furan-3-yl)-ureido]-3,16-diaza-tricyclo[14.3.0.0^4,6]nonadec-7-en-18-yl ester] | < 0.1 µM | < 10 µM | 
9 | O=C(NC1CCCC1)N[C@H]1CCCCC/C=C\[C@@H]2C[C@@]2(C(=O)NS(=O)(=O)C2CC2)NC(=O)[C@@H]2C[C@@H](OC(=O)N3CCc4ccccc4C3)CN2C1=O [AR00320403, (1S,4R,6S,14S,18R)-3,4-Dihydro-1H-isoquinoline-2-carboxylic acid 14-(3-cyclopentyl-ureido)-4-cyclopropanesulfonylaminocarbonyl-2,15-dioxo-3,16-diaza-tricyclo[14.3.0.0^4,6]nonadec-7-en-18-yl ester] | < 0.1 µM | < 1 µM | 
10 | CC(C)(C)NC(=O)N[C@H]1CCCCC/C=C\[C@@H]2C[C@@]2(C(=O)NS(=O)(=O)C2CC2)NC(=O)[C@@H]2C[C@@H](OC(=O)N3Cc4ccc(Cl)cc4C3)CN2C1=O [AR00320446, (1S,4R,6S,14S,18R)-5-Chloro-1,3-dihydro-isoindole-2-carboxylic acid 14-(3-tert-butyl-ureido)-4-cyclopropanesulfonylaminocarbonyl-2,15-dioxo-3,16-diaza-tricyclo[14.3.0.0^4,6]nonadec-7-en-18-yl ester] | < 0.1 µM | < 0.1 µM | 
11 | CC(C)(C)NC(=O)N[C@H]1CCCCC/C=C\[C@@H]2C[C@@]2(C(=O)NS(=O)(=O)C2CC2)NC(=O)[C@@H]2C[C@@H](OC(=O)N3Cc4cc(Cl)c(Cl)cc4C3)CN2C1=O [AR00320447, (1S,4R,6S,14S,18R)-5,6-Dichloro-1,3-dihydro-isoindole-2-carboxylic acid 14-(3-tert-butyl-ureido)-4-cyclopropanesulfonylaminocarbonyl-2,15-dioxo-3,16-diaza-tricyclo[14.3.0.0^4,6]nonadec-7-en-18-yl ester] | < 0.1 µM | < 1 µM | 
12 | O=C(N[C@H]1CCCCC/C=C\[C@@H]2C[C@@]2(C(=O)O)NC(=O)[C@@H]2C[C@@H](OC(=O)N3Cc4ccc(Cl)cc4C3)CN2C1=O)O[C@@H]1CCOC1 [AR00320448, (1S,4R,6S,14S,18R)-18-(5-Chloro-1,3-dihydro-isoindole-2-carbonyloxy)-2,15-dioxo-14-(tetrahydro-furan-3R-yloxycarbonylamino)-3,16-diaza-tricyclo[14.3.0.0^4,6]nonadec-7-ene-4-carboxylic acid] | < 1 µM | < 10 µM | 
13 | CC(C)(C)NC(=O)N[C@H]1CCCCC/C=C\[C@@H]2C[C@@]2(C(=O)O)NC(=O)[C@@H]2C[C@@H](OC(=O)N3Cc4ccc(Cl)cc4C3)CN2C1=O [AR00320449, (1S,4R,6S,14S,18R)-14-(3-tert-Butyl-ureido)-18-(5-chloro-1,3-dihydro-isoindole-2-carbonyloxy)-2,15-dioxo-3,16-diaza-tricyclo[14.3.0.0^4,6]nonadec-7-ene-4-carboxylic acid] | < 0.1 µM | < 10 µM | 
14 | CC(C)(C)NC(=O)N[C@H]1CCCCC/C=C\[C@@H]2C[C@@]2(C(=O)O)NC(=O)[C@@H]2C[C@@H](OC(=O)N3Cc4cc(Cl)c(Cl)cc4C3)CN2C1=O [AR00320450, (1S,4R,6S,14S,18R)-14-(3-tert-Butyl-ureido)-18-(5,6-dichloro-1,3-dihydro-isoindole-2-carbonyloxy)-2,15-dioxo-3,16-diaza-tricyclo[14.3.0.0^4,6]nonadec-7-ene-4-carboxylic acid] | < 1 µM | < 10 µM | 
15 | O=C(N[C@H]1CCCCC/C=C\[C@@H]2C[C@@]2(C(=O)NS(=O)(=O)C2CC2)NC(=O)C2C[C@@H](OC(=O)N3CCc4ccccc4C3CN3CCCCC3)CN2C1=O)OC1CCCC1 (stereo partly drawn) [AR00320506, (1S,4R,6S,14S,18R)-1-Piperidin-1-ylmethyl-3,4-dihydro-1H-isoquinoline-2-carboxylic acid 14-cyclopentyloxycarbonylamino-4-cyclopropanesulfonylaminocarbonyl-2,15-dioxo-3,16-diaza-tricyclo[14.3.0.0^4,6]nonadec-7-en-18-yl ester] | < 0.1 µM | < 0.1 µM | 
16 | CC(C)(C)OC(=O)N[C@H]1CCCCC/C=C\[C@@H]2C[C@@]2(C(=O)NS(=O)(=O)c2ccccc2)NC(=O)[C@@H]2C[C@@H](OC(=O)N3CCc4ccccc4C3)CN2C1=O [AR00320547, (1S,4R,6S,14S,18R)-3,4-Dihydro-1H-isoquinoline-2-carboxylic acid 4-benzenesulfonylaminocarbonyl-14-tert-butoxycarbonylamino-2,15-dioxo-3,16-diaza-tricyclo[14.3.0.0^4,6]nonadec-7-en-18-yl ester] | < 0.1 µM | < 0.1 µM | 
17 | COc1ccc(S(=O)(=O)NC(=O)[C@@]23C[C@H]2/C=C\CCCCC[C@H](NC(=O)OC(C)(C)C)C(=O)N2C[C@H](OC(=O)N4CCc5ccccc5C4)C[C@H]2C(=O)N3)cc1 [AR00320548, (1S,4R,6S,14S,18R)-3,4-Dihydro-1H-isoquinoline-2-carboxylic acid 14-tert-butoxycarbonylamino-4-(4-methoxy-benzenesulfonylaminocarbonyl)-2,15-dioxo-3,16-diaza-tricyclo[14.3.0.0^4,6]nonadec-7-en-18-yl ester] | < 0.1 µM |  | < 0.1 µM
